Measurements: paper PMC8909834, “An Orally Bioavailable and Highly Efficacious Inhibitor of CDK9/FLT3 for the Treatment of Acute Myeloid Leukemia” (Cancers, 2022)

Experiments:
[1] = tested on: other members of the CDK family; test: ADP Glo kinase assay, CDK selectivity; type: biochemical, human; conditions: ratio of potency
Description: Kinase assay. The ADP Glo^TM kinase assay (Promega, Madison, WI, USA) was used to assess the inhibition by CDDD11-8 of CDKs 1, 2, 4, 6, 7, and 9, as well as the mutant isoforms of FLT3. The assays were performed in accord with the manufacturer’s protocol (Promega) as described previously. Briefly, serial three-fold dilutions of CDDD11-8 were prepared in 100% DMSO from a 2 mM stock solution, followed by 1:40 dilution into Milli-Q water. […] Luminescence was read using an EnVision® multilabel plate reader (PerkinElmer, Beaconsfield, UK), and half-maximum inhibitory concentrations (IC50) were calculated using a non-linear regression model with a variable slope, plotting log (inhibitor concentration) vs. response using the following formula: Ar%=Bottom+Top−Bottom/1+Inhibitor Concentration/IC50^HillSlope where the relative activity Ar (%) is the signal relative to the controls, IC50 is the half maximum concentration, Hillslope is the steepness of the dose-response curve, Top and Bottom are plateaus reflecting the maximum and minimum in responses on the Y-axis (GraphPad Prism version 7, San Diego, CA, USA). Ki values were calculated from the IC50 using the Cheng−Prusoff equation [32]. […]

[2] = tested on: MV4-11 tumor xenografts; test: In vivo xenograft study; conditions: for MST (median survival time): vehicle MST = 38 days; for mice with unmeasurable tumor size (zero tumor volume): day 29, n = 7
Description: In vivo xenograft study. The in vivo efficacy of CDDD11-8 on tumors developed in mice from AML cells was evaluated by engrafting 5 × 10^6 MV4-11 cells suspended in a 1:1 mixture of Matrigel^TM (Becton Dickinson, Corning, NY, USA) and serum-free medium (100 µL) subcutaneously into the right flank of female BALB/c nude (nu/nu) mice (6–7 weeks). When the tumor reached a volume of 100–200 mm^3, mice were randomized into 3 groups (n = 7). Mice in G1 received vehicle (acetate buffer at pH 4.74), while mice in G2 and G3 received CDDD11-8, at 75 and 125 mg/kg, respectively. Both CDDD11-8 and vehicle were administered orally, once a day for 28 days. Clinical signs of toxicity were observed daily; body weights were measured daily during the dosing period and every other day thereafter. Tumor dimensions, i.e., length (L) and width (W), were measured every other day using Vernier calipers. The tumor volume was calculated using the formula 0.52 × L × W^2, where L and W are perpendicularly measured diameters and L ≥ W. Mice were humanely killed by CO2 asphyxiation when the tumor volume reached 1500 mm^3 or the percent loss of body weight exceeded 15%, or the study was completed.
Data were analyzed statistically using GraphPad Prism version 7. Descriptive statistics (frequency, mean, percentage) were used to report tumor volume, body weights, daily change in body weights from day 1 of dosing, and the ratio of tumor volume between treatment and control groups (T/C). Statistical differences in tumor volume between treated and control groups were analyzed using two-way ANOVA, where days on which the tumor volume was measured and treatments were the two independent factors, with a two-tailed significance cut-off level of p < 0.05. Tumor growth inhibition (TGI) was calculated as %TGI = [((VCD − VCB) − (VTD − VTB))/(VCD − VCB)] × 100, where VCD and VTD were the tumor volumes of the vehicle and treated groups on the calculated day, respectively, and VCB and VTB were the tumor volumes of the vehicle and treated groups at baseline (day 1). Kaplan–Meier survival analysis was performed, and group comparisons were done with the Gehan–Breslow–Wilcoxon test with Bonferroni correction method.

Cc1cnc(N[C@H]2CC[C@H](N)CC2)nc1-c1cnc2ccc(-c3ccccc3)cn12 [CDDD11-8]
selectivity for CDK9 over other members of the CDK family [1]: > 50 fold
day from which inhibition of tumor growth was statistically significant vs vehicle ([2]; 75 mg/kg PO QD): 9 days
increase in the life span ([2]; 75 mg/kg PO QD 28 days): 29%
MST (median survival time) ([2]; 75 mg/kg PO QD 28 days): 49 days
T/C% ([2]; 75 mg/kg PO QD, day 1): 101%
% TGI ([2]; 75 mg/kg PO QD, day 3): 92%
T/C% ([2]; 75 mg/kg PO QD, day 3): 75%
% TGI ([2]; 75 mg/kg PO QD, day 5): 101%
T/C% ([2]; 75 mg/kg PO QD, day 5): 60%
% TGI ([2]; 75 mg/kg PO QD, day 7): 95%
T/C% ([2]; 75 mg/kg PO QD, day 7): 50%
% TGI ([2]; 75 mg/kg PO QD, day 9): 115%
T/C% ([2]; 75 mg/kg PO QD, day 9): 32%
% TGI ([2]; 75 mg/kg PO QD, day 11): 121%
T/C% ([2]; 75 mg/kg PO QD, day 11): 22%
% TGI ([2]; 75 mg/kg PO QD, day 13): 127%
T/C% ([2]; 75 mg/kg PO QD, day 13): 12%
% TGI ([2]; 75 mg/kg PO QD, day 15): 129%
T/C% ([2]; 75 mg/kg PO QD, day 15): 8%
% TGI ([2]; 75 mg/kg PO QD, day 17): 128%
T/C% ([2]; 75 mg/kg PO QD, day 17): 6%
% TGI ([2]; 75 mg/kg PO QD, day 19): 125%
T/C% ([2]; 75 mg/kg PO QD, day 19): 5%
% TGI ([2]; 75 mg/kg PO QD, day 21): 119%
T/C% ([2]; 75 mg/kg PO QD, day 21): 5%
% TGI ([2]; 75 mg/kg PO QD, day 23): 112%
T/C% ([2]; 75 mg/kg PO QD, day 23): 5%
% TGI ([2]; 75 mg/kg PO QD, day 25): 105%
T/C% ([2]; 75 mg/kg PO QD, day 25): 9%
% TGI ([2]; 75 mg/kg PO QD, day 27): 96%
T/C% ([2]; 75 mg/kg PO QD, day 27): 15%
% TGI ([2]; 75 mg/kg PO QD, day 29): 92%
mice with unmeasurable tumor size (zero tumor volume) ([2]; 75 mg/kg PO QD): one
animals with tumor regression ([2]; 75 mg/kg PO QD, starting on day 9, n = 7): two out of seven animals
day from which inhibition of tumor growth was statistically significant vs vehicle ([2]; 125 mg/kg PO QD): 7 days
increase in the life span ([2]; 125 mg/kg PO QD 28 days): 45%
MST (median survival time) ([2]; 125 mg/kg PO QD 28 days): 55 days
T/C% ([2]; 125 mg/kg PO QD, day 1): 102%
% TGI ([2]; 125 mg/kg PO QD, day 3): 127%
T/C% ([2]; 125 mg/kg PO QD, day 3): 66%
% TGI ([2]; 125 mg/kg PO QD, day 5): 133%
T/C% ([2]; 125 mg/kg PO QD, day 5): 47%
% TGI ([2]; 125 mg/kg PO QD, day 7): 122%
T/C% ([2]; 125 mg/kg PO QD, day 7): 36%
% TGI ([2]; 125 mg/kg PO QD, day 9): 142%
T/C% ([2]; 125 mg/kg PO QD, day 9): 16%
% TGI ([2]; 125 mg/kg PO QD, day 11): 137%
T/C% ([2]; 125 mg/kg PO QD, day 11): 12%
% TGI ([2]; 125 mg/kg PO QD, day 13): 139%
T/C% ([2]; 125 mg/kg PO QD, day 13): 4%
% TGI ([2]; 125 mg/kg PO QD, day 15): 136%
T/C% ([2]; 125 mg/kg PO QD, day 15): 3%
% TGI ([2]; 125 mg/kg PO QD, day 17): 133%
T/C% ([2]; 125 mg/kg PO QD, day 17): 2%
% TGI ([2]; 125 mg/kg PO QD, day 19): 130%
T/C% ([2]; 125 mg/kg PO QD, day 19): 2%
% TGI ([2]; 125 mg/kg PO QD, day 21): 123%
T/C% ([2]; 125 mg/kg PO QD, day 21): 2%
% TGI ([2]; 125 mg/kg PO QD, day 23): 117%
T/C% ([2]; 125 mg/kg PO QD, day 23): 1%
% TGI ([2]; 125 mg/kg PO QD, day 25): 114%
T/C% ([2]; 125 mg/kg PO QD, day 25): 1%
% TGI ([2]; 125 mg/kg PO QD, day 27): 112%
T/C% ([2]; 125 mg/kg PO QD, day 27): 1%
% TGI ([2]; 125 mg/kg PO QD, day 29): 109%
animals with tumor regression still maintained ([2]; 125 mg/kg PO QD, day 29): six out of seven mice
mice with unmeasurable tumor size (zero tumor volume) ([2]; 125 mg/kg PO QD): three
animals with tumor regression ([2]; 125 mg/kg PO QD, from day 7, n = 7): all the mice
tolerability ([2]; 75 and 125 mg/kg PO QD 28 days, tumor-bearing mice): well tolerated
